Measurements as given in PMC10051810, “Modification of the Linker Amino Acid in the Cell-Penetrating Peptide NickFect55 Leads to Enhanced pDNA Transfection for In Vivo Applications” (Pharmaceutics, 2023).

Tested on: BALB/c mice
Experiment: In vivo safety: ALAT and ASAT from blood, body weight
Parameters: species or system mouse
Description: For in vivo studies, the pLuc was mixed with the CPP at CR2 in MilliQ water, wherein the dose per animal was 2.5 mg/kg. After 30 min of incubation at room temperature, glucose was added to the complexes to obtain an isotonic solution with a final injection volume of 336 µL, which was immediately injected intravenously via the tail vein.
In vivo safety was evaluated by measuring the alanine aminotransferase and the aspartate aminotransferase levels from the blood of mice injected with nanoparticles formed between NF55 analogues and pDNA. Additionally, the mice were weighed preinjection with the CPP-pDNA complexes and prior to sacrifice. […]
1 – Alanine aminotransferase 2 – Aspartate aminotransferase

[1] = blood of mice injected i.v. with CPP/pDNA nanoparticles, pLuc 2.5 mg/kg, CR2

With CCCCCCCCCCCCCCCCCC(=O)N[C@@H](C)C(=O)NCC(=O)N[C@@H](Cc1ccc(O)cc1)C(=O)N[C@@H](CC(C)C)C(=O)N[C@@H](CC(C)C)C(=O)NCC(=O)NCCC[C@H](N)C(=O)N[C@H](C(=O)N[C@@H](CC(N)=O)C(=O)N[C@@H](CC(C)C)C(=O)N[C@@H](CCCCN)C(=O)N[C@@H](C)C(=O)N[C@@H](CC(C)C)C(=O)N[C@@H](C)C(=O)N[C@@H](C)C(=O)N[C@@H](CC(C)C)C(=O)N[C@@H](C)C(=O)N[C@@H](CCCCN)C(=O)N[C@@H](C)C(=O)N[C@H](C(=O)N[C@@H](CC(C)C)C(N)=O)[C@@H](C)CC)[C@@H](C)CC [NF55] the “ALAT (alanine aminotransferase)” value [1] was 629, the “ASAT (aspartate aminotransferase)” value [1] was 184 and the Pre-injection weight (weight of mice before injecting with CPP/pDNA nanoparticles) was 26.96 grams. For the same compound, the Post-injection weight (weight of mice before sacrificing for ex vivo tissue analysis) was 25.35 grams.
